Legend:
[1] = biological target: T1, human insulin receptor (IR-A) (Homo sapiens, UniProt P06213); experiment: Insulin receptor affinity, SPA antibody capture assay (0% HSA); assay type: binding; conditions: affinity relative to human insulin
Description: (§1) The affinity of the acylated insulin analogues of this invention for the human insulin receptor is determined by a SPA assay (Scintillation Proximity Assay) microtiterplate antibody capture assay. […] Reagent mix for a single Packard Optiplate (Packard No. 6005190) is composed of 2.4 μl of a 1:5000 diluted purified recombinant human insulin receptor (either with or without exon 11), an amount of a stock solution of A14Tyr[^125I]-human insulin corresponding to 5000 cpm per 100 μl of reagent mix, 12 μl of a 1:1000 dilution of F12 antibody, 3 ml of SPA-beads and binding buffer to a total of 12 ml. A total of 100 μl reagent mix is then added to each well in the Packard Optiplate and a dilution series of the insulin derivative is made in the Optiplate from appropriate samples. The samples are then incubated for 16 hours while gently shaken. The phases are the then separated by centrifugation for 1 min and the plates counted in a Topcounter. The binding data were fitted using the nonlinear regression algorithm in the GraphPad Prism 2.01 (GraphPad Software, San Diego, Calif.) and affinities are expressed relative (in percentage (%)) to the affinity of human insulin.

[2] = Hydrophobicity by reverse phase HPLC under isocratic conditions; assay type: physicochemical; conditions: isocratic RP-HPLC, pH 7.3; human insulin as reference (k'rel = 1)
Description: The void time of the HPLC system, t0, is determined by injecting 5 μl of 0.1 mM NaNO3. Running conditions:
Column: Lichrosorb RP-C18, 5 μm, 4×250 mm
Buffer A: 0.1 M natrium phosphate pH 7.3, 10 vol % CH3CN

[3] = biological target: T1, human insulin receptor (IR-A); experiment: Insulin receptor affinity, SPA assay with binding buffer containing 4.5% HSA; conditions: 4.5% HSA in binding buffer; affinity relative to human insulin
Description: as §1

T1 sequence (P06213 28-746 isoform P06213-2 limits assumed): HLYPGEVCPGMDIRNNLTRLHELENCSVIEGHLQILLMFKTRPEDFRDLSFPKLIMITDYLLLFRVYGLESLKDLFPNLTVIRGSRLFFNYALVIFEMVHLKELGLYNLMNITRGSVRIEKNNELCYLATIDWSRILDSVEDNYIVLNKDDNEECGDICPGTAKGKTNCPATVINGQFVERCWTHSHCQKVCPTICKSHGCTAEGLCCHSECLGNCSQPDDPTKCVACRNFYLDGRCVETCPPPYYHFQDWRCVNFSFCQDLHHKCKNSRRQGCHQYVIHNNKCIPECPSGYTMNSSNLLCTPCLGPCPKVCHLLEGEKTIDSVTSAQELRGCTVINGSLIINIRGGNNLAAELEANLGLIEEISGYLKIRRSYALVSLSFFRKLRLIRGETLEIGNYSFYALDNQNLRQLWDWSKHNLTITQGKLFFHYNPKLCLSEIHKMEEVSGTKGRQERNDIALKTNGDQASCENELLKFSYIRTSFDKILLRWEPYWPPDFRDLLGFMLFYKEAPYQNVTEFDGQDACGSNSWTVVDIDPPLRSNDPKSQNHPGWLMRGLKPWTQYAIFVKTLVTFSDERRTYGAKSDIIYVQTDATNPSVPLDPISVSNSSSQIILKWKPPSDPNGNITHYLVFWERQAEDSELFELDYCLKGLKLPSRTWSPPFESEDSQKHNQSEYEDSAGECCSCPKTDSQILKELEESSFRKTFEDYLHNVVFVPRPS
T1 sequence (P06213 763-1382 partner limits assumed): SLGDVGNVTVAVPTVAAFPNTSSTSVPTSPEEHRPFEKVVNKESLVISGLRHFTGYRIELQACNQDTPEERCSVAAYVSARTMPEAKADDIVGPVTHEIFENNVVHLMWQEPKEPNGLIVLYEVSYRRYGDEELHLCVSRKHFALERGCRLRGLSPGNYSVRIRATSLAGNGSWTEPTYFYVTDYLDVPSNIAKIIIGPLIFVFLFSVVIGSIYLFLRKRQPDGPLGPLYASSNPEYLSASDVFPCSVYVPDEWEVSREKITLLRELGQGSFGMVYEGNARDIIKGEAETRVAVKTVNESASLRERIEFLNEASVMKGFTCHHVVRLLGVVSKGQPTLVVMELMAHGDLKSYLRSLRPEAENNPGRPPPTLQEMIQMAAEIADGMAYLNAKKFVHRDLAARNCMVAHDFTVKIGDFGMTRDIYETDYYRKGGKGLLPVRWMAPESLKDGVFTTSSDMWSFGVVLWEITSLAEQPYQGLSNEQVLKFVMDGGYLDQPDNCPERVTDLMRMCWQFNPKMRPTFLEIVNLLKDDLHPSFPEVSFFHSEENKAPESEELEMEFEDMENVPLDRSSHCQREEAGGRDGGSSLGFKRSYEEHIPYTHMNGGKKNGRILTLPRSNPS

Substance: A14E, B25H, B29K(N^ε3-Carboxy-5-octadecanedioylaminobenzoyl), desB30 Human Insulin [Example 4]
- Relative IR-A affinity (@ 0% HSA) (%) [1]: 3.4%
- Relative hydrophobicity, k'relderiv [2]: .48

Substance: A14E, B25H, B29K(N^ε4-([4-({19-Carboxynonadecanoylamino}methyl)trans-cyclohexane-carbonyl-]-γGlu-γGlu), desB30 Human Insulin [Example 12]
- Relative IR-A affinity (@ 0% HSA) (%) [1]: 1.7%
- Relative hydrophobicity, k'relderiv [2]: .94

Substance: A14E, B25H, B29K(N^ε4-([4-({19-Carboxynonadecanoylamino}methyl)trans-cyclohexanecarbonyl]-γGlu), desB30 Human Insulin [Example 7]
- Relative IR-A affinity (@ 0% HSA) (%) [1]: 2.1%
- Relative hydrophobicity, k'relderiv [2]: 2.78

Substance: A14E, B25H, B29K(N^ε (N-Octadecandioyl-N-carboxymethyl)-beta-alanyl), desB30 Human Insulin [Example 6]
- Relative IR-A affinity (@ 0% HSA) (%) [1]: 2.6%
- Relative IR-A affinity (@ 4.5% HSA) (%) [3]: .04%

Substance: A14E, B25H, B29K(N^ε(5-Eicosanedioylaminoisophthalic acid)), desB30 Human Insulin [Example 47]
- Relative IR-A affinity (@ 0% HSA) (%) [1]: 1.2%
- Relative IR-A affinity (@ 4.5% HSA) (%) [3]: 0.10%

Substance: A14E, B25H, B29K(N^εEicosanedioyl-Aoc), desB30 Human Insulin [Example 53]
- Relative IR-A affinity (@ 0% HSA) (%) [1]: 2.3%
- Relative IR-A affinity (@ 4.5% HSA) (%) [3]: 0.03%

Substance: A14E, B25H, B29K(N^εMyristyl), desB30 Human Insulin [Example 10]
- Relative IR-A affinity (@ 0% HSA) (%) [1]: 9.5%
- Relative hydrophobicity, k'relderiv [2]: 14.60

Substance: A14E, B25H, B29K(N^εOctadecanedioyl-γGlu-Abu-Abu-Abu-Abu), desB30 Human Insulin [Example 41]
- Relative IR-A affinity (@ 0% HSA) (%) [1]: 1.6%
- Relative IR-A affinity (@ 4.5% HSA) (%) [3]: .31%

Substance: A14E, B25H, B29K(N^εeicosanedioyl-γGlu-(3-(2-{2-[2-(2-aminoethoxy)ethoxy]ethoxy}ethoxy)propionyl-γGlu), desB30 Human Insulin [Example 17]
- Relative IR-A affinity (@ 0% HSA) (%) [1]: .9%
- Relative hydrophobicity, k'relderiv [2]: .57

Substance: A14E, B25H, B29K(N^εoctadecandioyl-γGlu-PEG7), desB30 Human Insulin [Example 15]
- Relative IR-A affinity (@ 0% HSA) (%) [1]: 1.9%
- Relative hydrophobicity, k'relderiv [2]: .43

Substance: A14E, B25H, B29K(N^ε—N-octadecandioyl-N-(2-carboxyethyl)glycyl), desB30 Human Insulin [Example 5]
- Relative IR-A affinity (@ 0% HSA) (%) [1]: 2.5%
- Relative hydrophobicity, k'relderiv [2]: .23

From patent US10259856B2, “Protease stabilized acylated insulin analogues” (priority 2008, dated 2019)
